# Experimental data reported in US20220153745A1, “DISUBSTITUTED BENZOTHIENYL-PYRROLOTRIAZINES AND THEIR USE AS FGFR KINASE INHIBITORS” (Bayer Intellectual Property GmbH, priority 2011, published 2022).
# Where a name gives a salt, the structure may show the parent alone.
# Columns and labels:
# FGFR-1 = target: T1, FGFR-1 (Homo sapiens, UniProt P11362); assay: FGFR-1 high ATP kinase assay (TR-FRET); format: biochemical; details: 2 mM ATP, 15 min pre-incubation; compounds of the invention (Table 1A)
# T1 construct: human FGFR-1 from amino acids G400 to R800 as in GenBank entry NM_015850; purchased Proqinase 0101-0000-1; host or cells: SF9 insect cells (baculovirus)
# T1 sequence (P11362 402-822): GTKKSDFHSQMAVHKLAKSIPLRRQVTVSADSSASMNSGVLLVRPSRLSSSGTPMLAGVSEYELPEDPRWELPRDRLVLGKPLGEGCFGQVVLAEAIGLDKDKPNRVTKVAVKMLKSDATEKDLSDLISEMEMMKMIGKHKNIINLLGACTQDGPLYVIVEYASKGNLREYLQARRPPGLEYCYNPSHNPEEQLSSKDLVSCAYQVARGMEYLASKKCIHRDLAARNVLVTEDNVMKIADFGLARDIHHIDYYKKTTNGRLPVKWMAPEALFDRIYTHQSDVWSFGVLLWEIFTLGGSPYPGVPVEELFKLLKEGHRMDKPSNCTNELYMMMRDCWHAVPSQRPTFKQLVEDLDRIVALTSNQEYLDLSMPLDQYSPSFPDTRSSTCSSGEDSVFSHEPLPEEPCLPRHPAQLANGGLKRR
# mTOR = target: T2, mTOR (Homo sapiens, UniProt P42345); assay: mTOR kinase assay (TR-FRET, for comparative purposes); format: biochemical; details: for inhibition at 1 µM: read-out: mTOR % inhibition @ 1 μM, mean inhibition at 1 μM test compound, 40 μM ATP
# T2 construct: human mTOR amino acids from 1360 to 2549; purchased Invitrogen 4753; host or cells: insect cells
# T2 sequence (P42345 1360-2549): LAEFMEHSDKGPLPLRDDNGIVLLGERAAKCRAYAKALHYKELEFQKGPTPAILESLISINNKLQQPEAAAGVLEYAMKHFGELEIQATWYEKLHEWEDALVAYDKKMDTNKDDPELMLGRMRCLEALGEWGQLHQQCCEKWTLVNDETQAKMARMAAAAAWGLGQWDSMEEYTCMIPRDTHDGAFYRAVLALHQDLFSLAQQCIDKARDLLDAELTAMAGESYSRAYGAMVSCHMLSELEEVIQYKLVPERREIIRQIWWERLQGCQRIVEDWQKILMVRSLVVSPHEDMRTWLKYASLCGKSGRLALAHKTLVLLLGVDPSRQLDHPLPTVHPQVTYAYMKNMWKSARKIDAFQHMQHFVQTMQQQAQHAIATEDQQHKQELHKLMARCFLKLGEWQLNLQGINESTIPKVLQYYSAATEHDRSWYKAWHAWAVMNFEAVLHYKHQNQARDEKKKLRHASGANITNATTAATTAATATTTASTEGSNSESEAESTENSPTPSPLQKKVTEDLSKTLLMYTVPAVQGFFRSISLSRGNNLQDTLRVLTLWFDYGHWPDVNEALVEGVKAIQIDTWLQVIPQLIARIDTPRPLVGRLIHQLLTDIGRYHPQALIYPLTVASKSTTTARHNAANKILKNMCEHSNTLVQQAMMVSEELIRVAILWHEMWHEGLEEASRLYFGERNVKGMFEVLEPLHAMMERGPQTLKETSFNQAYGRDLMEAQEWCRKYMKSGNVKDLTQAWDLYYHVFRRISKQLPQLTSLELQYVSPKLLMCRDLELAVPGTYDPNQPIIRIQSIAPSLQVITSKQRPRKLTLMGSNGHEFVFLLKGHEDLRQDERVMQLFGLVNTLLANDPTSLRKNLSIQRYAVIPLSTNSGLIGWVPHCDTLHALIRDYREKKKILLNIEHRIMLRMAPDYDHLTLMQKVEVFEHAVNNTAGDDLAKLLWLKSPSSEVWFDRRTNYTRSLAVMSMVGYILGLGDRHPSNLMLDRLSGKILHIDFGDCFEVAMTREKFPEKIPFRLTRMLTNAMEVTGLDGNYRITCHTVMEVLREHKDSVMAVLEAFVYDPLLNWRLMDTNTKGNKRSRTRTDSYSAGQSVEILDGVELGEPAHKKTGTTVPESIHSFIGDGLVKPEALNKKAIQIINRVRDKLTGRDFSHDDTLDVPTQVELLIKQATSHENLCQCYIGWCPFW
# FGFR-3 = target: T3, FGFR-3 (Homo sapiens, UniProt P22607); assay: FGFR-3 kinase assay (TR-FRET); format: biochemical; details: 10 μM ATP, 15 min pre-incubation; compounds of the invention (Table 2A)
# T3 construct: human FGFR-3 from amino acids R397 to T806 as in NCBI/Protein entry NP_000133.1; purchased Proqinase 1068-0000-1; host or cells: SF9 insect cells (baculovirus)
# T3 sequence (P22607 397-806): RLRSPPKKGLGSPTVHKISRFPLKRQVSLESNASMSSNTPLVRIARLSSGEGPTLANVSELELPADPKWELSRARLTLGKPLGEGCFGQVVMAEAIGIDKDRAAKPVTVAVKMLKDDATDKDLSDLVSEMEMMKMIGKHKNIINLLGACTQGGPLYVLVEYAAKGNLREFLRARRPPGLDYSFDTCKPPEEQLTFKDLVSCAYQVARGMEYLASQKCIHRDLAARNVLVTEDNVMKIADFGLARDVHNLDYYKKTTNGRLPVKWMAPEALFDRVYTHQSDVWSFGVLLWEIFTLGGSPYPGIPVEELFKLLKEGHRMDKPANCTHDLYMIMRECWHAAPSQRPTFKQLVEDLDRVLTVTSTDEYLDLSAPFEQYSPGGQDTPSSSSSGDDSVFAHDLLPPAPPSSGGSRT
# [1] = tested on: Human umbilical vein endothelial cells (HUVEC); assay: Inhibition of hFGF-2 mediated HUVEC proliferation; format: cell-based; details: 72 h
SMILES,IC50 (FGFR-1) [nM],inhibition at 1 µM (mTOR) [%],IC50 (FGFR-3) [nM],IC50 [1] [nM],"mTOR % inhibition @ 1 μM (mTOR; mean inhibition at 1 μM test compound, 40 μM ATP) [%]"
"CCOCc1c(-c2cc3cc(C)cc(OC)c3s2)c2c(N)ncnn2c1CN1CCN(C(C)=O)CC1 [Example 11, 1-(4-{[4-Amino-6-(ethoxymethyl)-5-(7-methoxy-5-methyl-1-benzothiophen-2-yl)pyrrolo[2,1-f][1,2,4]triazin-7-yl]methyl}piperazin-1-yl)ethanone dihydrochloride]",6.5,33.2,,,
"COCc1c(-c2cc3cc(C)cc(OC)c3s2)c2c(N)ncnn2c1CN1CC[C@](C)(N)C1 [Example 14, 7-{[(3S)-3-Amino-3-methylpyrrolidin-1-yl]methyl}-6-(methoxymethyl)-5-(7-methoxy-5-methyl-1-benzothiophen-2-yl)pyrrolo[2,1-f][1,2,4]triazin-4-amine trihydrochloride]",,15.7,2.5,,
"COCc1c(-c2cc3cc(C)cc(OC)c3s2)c2c(N)ncnn2c1CN1CCN(C(C)=O)CC1 [Example 16, 1-(4-{[4-Amino-6-(methoxymethyl)-5-(7-methoxy-5-methyl-1-benzothiophen-2-yl)pyrrolo[2,1-f]-[1,2,4]triazin-7-yl]methyl}piperazin-1-yl)ethanone dihydrochloride]",,36.9,9.4,,
"COc1cc(C)cc2cc(-c3c(COCCO)c(CN4CCNCC4)n4ncnc(N)c34)sc12 [Example 22, 2-{[4-Amino-5-(7-methoxy-5-methyl-1-benzothiophen-2-yl)-7-(piperazin-1-ylmethyl)pyrrolo[2,1-f]-[1,2,4]triazin-6-yl]methoxy}ethanol dihydrochloride]",0.9,17.6,4.7,,
"COc1cc(C)cc2cc(-c3c(COCCN)c(CN4CCNCC4)n4ncnc(N)c34)sc12 [Example 30, 6-[(2-Aminoethoxy)methyl]-5-(7-methoxy-5-methyl-1-benzothiophen-2-yl)-7-(piperazin-1-ylmethyl)pyrrolo[2,1-f][1,2,4]triazin-4-amine trihydrochloride]",2.8,21.1,6.4,,
"CCNCc1c(-c2cc3cc(C)cc(OC)c3s2)c2c(N)ncnn2c1CN1CCNCC1 [Example 38, 6-[(Ethylamino)methyl]-5-(7-methoxy-5-methyl-1-benzothiophen-2-yl)-7-(piperazin-1-ylmethyl)pyrrolo[2,1-f][1,2,4]triazin-4-amine trihydrochloride]",6.9,20.8,,,
"COc1cc(C)cc2cc(-c3c(CNCCO)c(CN4CCNCC4)n4ncnc(N)c34)sc12 [Example 39, 2-({[4-Amino-5-(7-methoxy-5-methyl-1-benzothiophen-2-yl)-7-(piperazin-1-ylmethyl)pyrrolo[2,1-f]-[1,2,4]triazin-6-yl]methyl}amino)ethanol trihydrochloride]",1.1,11.5,4.9,,
"COc1cc(C)cc2cc(-c3c(CNC4CCC4)c(CN4CCNCC4)n4ncnc(N)c34)sc12 [Example 44, 6-[(Cyclobutylamino)methyl]-5-(7-methoxy-5-methyl-1-benzothiophen-2-yl)-7-(piperazin-1-ylmethyl)pyrrolo[2,1-f][1,2,4]triazin-4-amine trihydrochloride]",2.1,13.3,,,
"COc1cc(C)cc2cc(-c3c(CN4CCCC4)c(CN4CCNCC4)n4ncnc(N)c34)sc12 [Example 45, 5-(7-Methoxy-5-methyl-1-benzothiophen-2-yl)-7-(piperazin-1-ylmethyl)-6-(pyrrolidin-1-ylmethyl)pyrrolo[2,1-f][1,2,4]triazin-4-amine trihydrochloride]",3.4,15.5,9.7,,
"COc1cc(C)cc2cc(-c3c(CNC4CC4)c(CN4CCNCC4)n4ncnc(N)c34)sc12 [Example 46, 6-[(Cyclopropylamino)methyl]-5-(7-methoxy-5-methyl-1-benzothiophen-2-yl)-7-(piperazin-1-ylmethyl)pyrrolo[2,1-f][1,2,4]triazin-4-amine trihydrochloride]",3.2,11,8.1,,
"COc1cc(C)cc2cc(-c3c(CNCC(C)(C)O)c(CN4CCN(C(C)=O)CC4)n4ncnc(N)c34)sc12 [Example 57, 1-(4-{[4-Amino-6-{[(2-hydroxy-2-methylpropyl)amino]methyl}-5-(7-methoxy-5-methyl-1-benzothiophen-2-yl)pyrrolo[2,1-f][1,2,4]triazin-7-yl]methyl}piperazin-1-yl)ethanone]",,2,,3.2,
"COc1cc(C)cc2cc(-c3c(CN4CCNC(=O)C4)c(CN4CCN(C(C)=O)CC4)n4ncnc(N)c34)sc12 [Example 59, 4-({7-[(4-Acetylpiperazin-1-yl)methyl]-4-amino-5-(7-methoxy-5-methyl-1-benzothiophen-2-yl)pyrrolo[2,1-f][1,2,4]triazin-6-yl}methyl)piperazin-2-one]",,0.8,,51.1,
"COC(=O)c1c(-c2cc3cc(C)cc(OC)c3s2)c2c(N)ncnn2c1C(=O)N1CCNCC1 [Example 60, Methyl 4-amino-5-(7-methoxy-5-methyl-1-benzothiophen-2-yl)-7-(piperazin-1-ylcarbonyl)pyrrolo[2,1-f][1,2,4]triazine-6-carboxylate bis(formiate)]",,11.1,,250,
"COc1cc(C)cc2cc(-c3c(-c4cnco4)c(CN4CCNCC4)n4ncnc(N)c34)sc12 [Example 61, 5-(7-Methoxy-5-methyl-1-benzothiophen-2-yl)-6-(1,3-oxazol-5-yl)-7-(piperazin-1-ylmethyl)pyrrolo[2,1-f][1,2,4]triazin-4-amine trihydrochloride]",,15.9,0.9,,
"COc1cc(C)cc2cc(-c3c(CNC(C)=O)c(CN4CCNC(=O)C4)n4ncnc(N)c34)sc12 [Example 67, N-({4-Amino-5-(7-methoxy-5-methyl-1-benzothiophen-2-yl)-7-[(3-oxopiperazin-1-yl)methyl]-pyrrolo[2,1-f][1,2,4]triazin-6-yl}methyl)acetamide]",,8.4,,12.1,
"COc1cc(C)cc2cc(-c3c(CO)c(C#N)n4ncnc(N)c34)sc12 [Example 68, 4-Amino-6-(hydroxymethyl)-5-(7-methoxy-5-methyl-1-benzothiophen-2-yl)pyrrolo[2,1-f][1,2,4]-triazine-7-carbonitrile]",,8,,14.4,
"COc1cc(C)cc2cc(-c3c(CNC(C)=O)c(CNC(C)=O)n4ncnc(N)c34)sc12 [Example 72, N,N′-{[4-Amino-5-(7-methoxy-5-methyl-1-benzothiophen-2-yl)pyrrolo[2,1-f][1,2,4]triazine-6,7-diyl]bis(methylene)}diacetamide]",,8.2,,1.6,
"COc1cc(C)cc2cc(-c3c(CO)c(C(C)(C)O)n4ncnc(N)c34)sc12 [Example 73, 2-[4-Amino-6-(hydroxymethyl)-5-(7-methoxy-5-methyl-1-benzothiophen-2-yl)pyrrolo[2,1-f][1,2,4]-triazin-7-yl]propan-2-ol]",,18.5,,5.5,
"COc1cc(C)cc2cc(-c3c(CN4CCNC(=O)C4)c(C(C)(C)O)n4ncnc(N)c34)sc12 [Example 74, 4-{[4-Amino-7-(2-hydroxypropan-2-yl)-5-(7-methoxy-5-methyl-1-benzothiophen-2-yl)pyrrolo[2,1-f][1,2,4]triazin-6-yl]methyl}piperazin-2-one]",,18.6,,0.2,
"COc1cc(C)cc2cc(-c3c(CO)c(C)n4ncnc(N)c34)sc12 [Example 75, [4-Amino-5-(7-methoxy-5-methyl-1-benzothiophen-2-yl)-7-methylpyrrolo[2,1-f][1,2,4]triazin-6-yl]-methanol]",,10.2,,1.5,
"COc1cc(C)cc2cc(-c3c(CN4CCNC(=O)C4)c(C)n4ncnc(N)c34)sc12 [Example 76, 4-{[4-Amino-5-(7-methoxy-5-methyl-1-benzothiophen-2-yl)-7-methylpyrrolo[2,1-f][1,2,4]triazin-6-yl]methyl}piperazin-2-one]",,8.5,,1.5,
"COc1cc(C)cc2cc(-c3c(CNCC(C)(C)O)c(C)n4ncnc(N)c34)sc12 [Example 77, 1-({[4-Amino-5-(7-methoxy-5-methyl-1-benzothiophen-2-yl)-7-methylpyrrolo[2,1-f][1,2,4]triazin-6-yl]methyl}amino)-2-methylpropan-2-ol formiate]",,,,3.2,0.7
"COc1cc(C)cc2cc(-c3c(CO)c(Cl)n4ncnc(N)c34)sc12 [Example 79, [4-Amino-7-chloro-5-(7-methoxy-5-methyl-1-benzothiophen-2-yl)pyrrolo[2,1-f][1,2,4]triazin-6-yl]-methanol]",,14.7,,3.5,
"COc1cc(C)cc2cc(-c3c(CNCC(C)(C)O)c(Cl)n4ncnc(N)c34)sc12 [Example 81, 1-({[4-Amino-7-chloro-5-(7-methoxy-5-methyl-1-benzothiophen-2-yl)pyrrolo[2,1-f][1,2,4]triazin-6-yl]methyl}amino)-2-methylpropan-2-ol formiate]",,4.1,,1.6,
"COc1cc(C)cc2cc(-c3c(C)c(CN4CCNCC4)n4ncnc(N)c34)sc12 [Example 84, 5-(7-Methoxy-5-methyl-1-benzothiophen-2-yl)-6-methyl-7-(piperazin-1-ylmethyl)pyrrolo[2,1-f][1,2,4]triazin-4-amine formiate]",,9.1,,46.6,
